From PubChem BioAssay AID248 (DTP/NCI, 2004) come the findings set out here.

Values joined by “and” are separate entries in the source; they are usually repeats but may differ in a detail not shown here. Equal values may be shown once. Inconclusive results and toxic doses are left out.

This experiment relates to L1210 leukemia ip in BDF1 mice, survival T/C. Description: NCI In Vivo Anticancer Drug Screen. Data for tumor model L1210 Leukemia (intraperitoneal) in B6D2F1 (BDF1) mice. The conditions noted are these: higher = longer survival. The procedure, abridged: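 Transplantable tumor model; survival measured in treated vs vehicle control mice. Value = treated/control.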
Where [1] appears, read: endpoint: mean survival time, dose: 100.0 mg/kg/injection, schedule: Q04DX002 (ip), vehicle: Klucel (hydroxypropylcellulose) (HPC).
Where [2] appears, read: endpoint: mean survival time, dose: 200.0 mg/kg/injection, schedule: Q04DX002 (ip), vehicle: Klucel (hydroxypropylcellulose) (HPC).
[3] abbreviates: endpoint: mean survival time, dose: 400.0 mg/kg/injection, schedule: Q04DX002 (ip), vehicle: Klucel (hydroxypropylcellulose) (HPC).
[4] abbreviates: endpoint: mean survival time, dose: 100.0 mg/kg/injection, schedule: Q01DX001 (ip), vehicle: Klucel (hydroxypropylcellulose) (HPC).
Setting [5] is: endpoint: mean survival time, dose: 100.0 mg/kg/injection, schedule: Q01DX001 (ip), vehicle: saline.
Setting [6] is: endpoint: mean survival time, dose: 200.0 mg/kg/injection, schedule: Q01DX001 (ip), vehicle: saline.
The mark [7] stands for this setting: endpoint: mean survival time, dose: 400.0 mg/kg/injection, schedule: Q01DX001 (ip), vehicle: saline.
The mark [8] stands for this setting: endpoint: mean survival time, dose: 100.0 mg/kg/injection, schedule: Q01DX009 (ip), vehicle: Klucel (hydroxypropylcellulose) (HPC).
The mark [9] stands for this setting: endpoint: mean survival time, dose: 200.0 mg/kg/injection, schedule: Q01DX009 (ip), vehicle: Klucel (hydroxypropylcellulose) (HPC).
Setting [10] is: endpoint: mean survival time, dose: 400.0 mg/kg/injection, schedule: Q01DX009 (ip), vehicle: Klucel (hydroxypropylcellulose) (HPC).
Where [11] appears, read: endpoint: mean survival time, dose: 100.0 mg/kg/injection, schedule: Q04DX003 (ip), vehicle: saline with Tween-80.
Setting [12] is: endpoint: mean survival time, dose: 200.0 mg/kg/injection, schedule: Q04DX003 (ip), vehicle: saline with Tween-80.
Where [13] appears, read: endpoint: mean survival time, dose: 400.0 mg/kg/injection, schedule: Q04DX003 (ip), vehicle: saline with Tween-80.

For the compound `COC(=O)C(Cc1ccc(N(CCCl)CCCl)cc1)N=NNc1nc[nH]c1C(N)=O` (centres undefined), the T/C is 150 % of control (endpoint: mean survival time, dose: 11.0 mg/kg/injection, schedule: Q03HX024 (ip), vehicle: other); 176 % of control (endpoint: mean survival time, dose: 17.0 mg/kg/injection, schedule: Q03HX024 (ip), vehicle: other); 157 % of control (endpoint: mean survival time, dose: 25.0 mg/kg/injection, schedule: Q03HX024 (ip), vehicle: other); 152 % of control (endpoint: mean survival time, dose: 38.0 mg/kg/injection, schedule: Q01DX009 (ip), vehicle: other); 114 % of control (endpoint: mean survival time, dose: 56.0 mg/kg/injection, schedule: Q01DX009 (ip), vehicle: other); 166 % of control (endpoint: mean survival time, dose: 88.0 mg/kg/injection, schedule: Q04DX003 (ip), vehicle: other). For the same compound, the T/C is, setting by setting: (endpoint: mean survival time, dose: 134.0 mg/kg/injection, schedule: Q04DX003 (ip), vehicle: other) 160 % of control; (endpoint: mean survival time, dose: 200.0 mg/kg/injection, schedule: Q01DX001 (ip), vehicle: carboxymethylcellulose (CMC)) 161 % of control; (endpoint: mean survival time, dose: 200.0 mg/kg/injection, schedule: Q04DX003 (ip), vehicle: other) 103 % of control; (endpoint: mean survival time, dose: 300.0 mg/kg/injection, schedule: Q01DX001 (ip), vehicle: carboxymethylcellulose (CMC)) 181 % of control; (endpoint: mean survival time, dose: 375.0 mg/kg/injection, schedule: Q01DX001 (ip), vehicle: carboxymethylcellulose (CMC)) 151 % of control; (endpoint: median survival time, dose: 12.5 mg/kg/injection, schedule: Q01DX009 (ip), vehicle: steriod suspending solution) 122 % of control. For the same compound, the T/C (endpoint: median survival time, dose: 50.0 mg/kg/injection, schedule: Q01DX009 (ip), vehicle: steriod suspending solution) was 105 % of control and the T/C (endpoint: median survival time, dose: 100.0 mg/kg/injection, schedule: Q01DX009 (ip), vehicle: steriod suspending solution) was 88 % of control.

`O=C1C=C(O)C2C3C=CC(CC3)C12` (centres undefined): the T/C under setting [1] was 106 % of control, the T/C under setting [2] was 106 % of control and the T/C under setting [3] was 92 % of control.

Regarding `C=CCSc1ccnc(N)n1`, the T/C is, setting by setting: (endpoint: mean survival time, dose: 50.0 mg/kg/injection, schedule: Q01DX001 (ip), vehicle: Klucel (hydroxypropylcellulose) (HPC)) 103 % of control; under setting [4], 101 % of control.

For `CSCSCC(NC(=O)c1ccccc1)C(=O)O` (centres undefined), the T/C is 104 % of control under setting [5]; 90 % of control (endpoint: mean survival time, dose: 150.0 mg/kg/injection, schedule: Q04DX003 (ip), vehicle: saline); 104 % of control under setting [6]; 87 % of control (endpoint: mean survival time, dose: 300.0 mg/kg/injection, schedule: Q04DX003 (ip), vehicle: saline); 98 % of control under setting [7]; 92 % of control (endpoint: mean survival time, dose: 600.0 mg/kg/injection, schedule: Q04DX003 (ip), vehicle: saline).

As for `Cc1ccc(C(OC(=O)c2ccccc2)c2nccc3ccccc23)cc1` (centres undefined), the T/C runs as follows: under setting [5], 86 % of control; under setting [6], 98 % of control; under setting [7], 98 % of control.

`N/N=C/c1ccccc1[N+](=O)[O-]`: the T/C reads like this: (endpoint: mean survival time, dose: 100.0 mg/kg/injection, schedule: Q01DX001 (ip), vehicle: other) 97 % of control; (endpoint: mean survival time, dose: 200.0 mg/kg/injection, schedule: Q01DX001 (ip), vehicle: other) 95 % of control; (endpoint: mean survival time, dose: 400.0 mg/kg/injection, schedule: Q01DX001 (ip), vehicle: other) 111 % of control.

For `N#CC(c1cccnc1)N1CCOCC1` (centres undefined), the T/C by setting is: (endpoint: mean survival time, dose: 25.0 mg/kg/injection, schedule: Q04DX002 (ip), vehicle: saline with Tween-80) 103 % of control; (endpoint: mean survival time, dose: 50.0 mg/kg/injection, schedule: Q04DX002 (ip), vehicle: saline with Tween-80) 100 % of control; (endpoint: mean survival time, dose: 100.0 mg/kg/injection, schedule: Q04DX002 (ip), vehicle: saline with Tween-80) 96 % of control.

As for `O=C(Cc1ccccc1)NCCO`, the T/C is 103 % of control (endpoint: mean survival time, dose: 50.0 mg/kg/injection, schedule: Q01DX009 (ip), vehicle: saline); 98 % of control (endpoint: mean survival time, dose: 100.0 mg/kg/injection, schedule: Q01DX009 (ip), vehicle: saline); 109 % of control (endpoint: mean survival time, dose: 100.0 mg/kg/injection, schedule: Q04DX002 (ip), vehicle: saline); 101 % of control (endpoint: mean survival time, dose: 200.0 mg/kg/injection, schedule: Q01DX009 (ip), vehicle: saline); 109 % of control (endpoint: mean survival time, dose: 200.0 mg/kg/injection, schedule: Q04DX002 (ip), vehicle: saline); 97 % of control (endpoint: mean survival time, dose: 400.0 mg/kg/injection, schedule: Q01DX009 (ip), vehicle: saline).

As to `COc1ccc(NC(=O)Oc2cccc(OC(=O)c3ccccc3)c2)cc1`, the T/C under setting [4] was 96 % of control; the T/C under setting [8] is 104 % of control and 106 % of control; the T/C under setting [1] was 93 % of control and 103 % of control and 106 % of control; the T/C (endpoint: mean survival time, dose: 100.0 mg/kg/injection, schedule: Q04DX003 (ip), vehicle: Klucel (hydroxypropylcellulose) (HPC)) was 98 % of control; the T/C (endpoint: mean survival time, dose: 200.0 mg/kg/injection, schedule: Q01DX001 (ip), vehicle: Klucel (hydroxypropylcellulose) (HPC)) was 93 % of control; the T/C under setting [9] is 100 % of control and 103 % of control. For the same compound, the T/C reads like this: under setting [2], 99 % of control and 100 % of control and 103 % of control; (endpoint: mean survival time, dose: 200.0 mg/kg/injection, schedule: Q04DX003 (ip), vehicle: Klucel (hydroxypropylcellulose) (HPC)) 98 % of control; (endpoint: mean survival time, dose: 400.0 mg/kg/injection, schedule: Q01DX001 (ip), vehicle: Klucel (hydroxypropylcellulose) (HPC)) 93 % of control; under setting [10], 97 % of control and 98 % of control; under setting [3], 93 % of control and 97 % of control and 99 % of control; (endpoint: mean survival time, dose: 400.0 mg/kg/injection, schedule: Q04DX003 (ip), vehicle: Klucel (hydroxypropylcellulose) (HPC)) 91 % of control.

Take `Cc1ccc(CN(C)N=Nc2ccc(C#N)cc2)cc1`: the T/C by setting is: under setting [11], 96 % of control; under setting [12], 87 % of control; under setting [13], 94 % of control.

Turning to `CC(C)C1(Br)C(=O)NC(=O)NC1=O`, the T/C runs as follows: (endpoint: mean survival time, dose: 6.25 mg/kg/injection, schedule: Q01DX009 (ip), vehicle: Klucel (hydroxypropylcellulose) (HPC)) 103 % of control; (endpoint: mean survival time, dose: 12.5 mg/kg/injection, schedule: Q01DX009 (ip), vehicle: Klucel (hydroxypropylcellulose) (HPC)) 108 % of control.

For the compound `c1ccc2cc3nc4ccccc4nc3cc2c1`, the T/C runs as follows: (endpoint: mean survival time, dose: 100.0 mg/kg/injection, schedule: Q01DX001 (ip), vehicle: acetone) 92 % of control; (endpoint: mean survival time, dose: 100.0 mg/kg/injection, schedule: Q04DX003 (ip), vehicle: saline) 108 % of control; (endpoint: mean survival time, dose: 200.0 mg/kg/injection, schedule: Q01DX001 (ip), vehicle: acetone) 97 % of control; (endpoint: mean survival time, dose: 200.0 mg/kg/injection, schedule: Q04DX003 (ip), vehicle: saline) 101 % of control; (endpoint: mean survival time, dose: 400.0 mg/kg/injection, schedule: Q01DX001 (ip), vehicle: acetone) 86 % of control; (endpoint: mean survival time, dose: 400.0 mg/kg/injection, schedule: Q04DX003 (ip), vehicle: saline) 111 % of control.

In the case of `O=C(O)/C(=C\c1cccnc1)NC(=O)c1ccccc1`, the T/C runs as follows: under setting [1], 90 % of control; under setting [2], 101 % of control; under setting [3], 96 % of control.

For the compound `O=C(O)/C(=C\c1ccc(Cl)cc1)c1ccc(C(F)(F)F)cc1[N+](=O)[O-]`, the T/C runs as follows: under setting [11], 96 % of control; under setting [12], 94 % of control; under setting [13], 92 % of control.

As for `Cc1cccc(NC(=O)/C=C/c2ccccc2)n1`, the T/C is, setting by setting: (endpoint: mean survival time, dose: 25.0 mg/kg/injection, schedule: Q01DX009 (ip), vehicle: Klucel (hydroxypropylcellulose) (HPC)) 96 % of control; (endpoint: mean survival time, dose: 50.0 mg/kg/injection, schedule: Q01DX009 (ip), vehicle: Klucel (hydroxypropylcellulose) (HPC)) 89 % of control; under setting [8], 103 % of control and 91 % of control; under setting [1], 91 % of control.

For the compound `F[Si](F)(c1ccccc1)c1ccccc1`, the T/C was 105 % of control (endpoint: mean survival time, dose: 75.0 mg/kg/injection, schedule: Q01DX001 (ip), vehicle: saline) and 100 % of control (endpoint: mean survival time, dose: 150.0 mg/kg/injection, schedule: Q01DX001 (ip), vehicle: saline).

On to `CCCCCCCCCCCCCCCCCC(=O)N/N=C/c1ccc(N(C)C)cc1`, for which the T/C under setting [8] is 93 % of control, the T/C under setting [9] was 94 % of control and the T/C under setting [10] was 98 % of control.

For the compound `CC1=CC(C)C(=O)N(CC(C)N2CCCC2)C(C)=C1` (centres undefined), the T/C (endpoint: mean survival time, dose: 75.0 mg/kg/injection, schedule: Q01DX001 (ip), vehicle: carboxymethylcellulose (CMC)) was 102 % of control.
